Source: US11130959B2, “Methods and compositions for combinations of mutations associated with herbicide resistance/tolerance in rice” (priority 2016, dated 2021)

Legend:
[1] = test system: F2 individuals from cross ML0831266-03093 x ML0831265-01493; assay: Herbicide bioassays on F2 individuals (Table 3); type: in vivo, Oryza sativa
Description: In the population sprayed with 105 gm ai/ha a single QTL found on chromosome 2 with strong linkage to SNP marker BG-id2004662 acted in a mostly dominate manner. This marker and QTL identifies the inherent tolerance in line P1003. The marker is useful for breeding and selection of new mesotrione tolerant lines. The discovery of this QTL facilitates commercial development of new rice varieties with a new method for controlling weeds through the use of mesotrione herbicide. The finding of the linked marker BG-id2004662 is a novel finding and selection strategy for breeding and selecting the tolerance to mesotrione and other herbicides derived from line P1003.
Combining the HPPD tolerance with the ACCase tolerance into a single rice line was initiated with the HPPD tolerance mapping project by crossing the HPPD tolerant line ML0831266-03093 to the ACCase tolerant line ML0831265-01493. In mapping the F2 population plants were selected for HPPD tolerance by applying mesotrione first at a low rate (105 gmai/ha) followed by a high rate (630 gmai/ha). In this process molecular markers were also developed allowing future selection of HPPD tolerance by either markers or herbicide tolerance screening or both.
In one example a rate of 105 gm ai/ha is applied followed three weeks later by a second application of 630 gm ai/ha. In another example a rate of 420 gm ai/ha is applied in a single application. Yet another example entails applying the herbicide at a rate of 630 gm ai/ha. Herbicide applications are done at the three to four leaf stage of seedling growth. The ideal situation is to have also planted near or within the F2 population a set of plants from the original mutant mesotrione donor line ML0831266-03093, a row of plants of the wild-type of the mutation line, P1003, and a row of the line involved as the other parent ML0831265-01493. These control lines will allow easy differentiation for inheritance of the tolerance provided by the ML0831266-03093 mutant line through comparison of the response in the F2 plants to these control lines. Only plants that live and are relatively healthy will have inherited and be homozygous for the tolerance level provided by the ML0831266-03093 mutant line.

[2] = test system: common weeds in rice (grass weeds such as barnyard grass); assay: Weed control in rice crops; type: in vivo
Method: FIGS. 5A and 5B are photographs of results of trait tolerance trials; weed control by mesotrione herbicide applied pre-planting was evaluated; the plots were planted with a hybrid of the HPPD tolerant line ML0831266-03093; just before planting, the plot on the right FIG. 5B received an application of mesotrione at 210 gmai/ha; the plot on the left FIG. 5A had no herbicide applied either pre-plant or post-emergence; pictures were taken four weeks after planting showing differences in weed appearance.
While testing the tolerant lines, the parent lines were also tested to serve as controls and as an indication of commercial potential as a red rice/wild weedy rice control strategy.
Rice is tolerant to certain ACCase inhibitor herbicides, for example cyhalofop is registered for use in rice. However other ACCase herbicides kill or severely injure rice to varying degrees. […] The applied rates of both types of herbicides giving the weed control are well within the tolerance level of the respective ACCase and HPPD tolerant lines including the combined lines carrying tolerance to both HPPD and ACCase herbicides.

[3] = test system: rice line PL1214418M2-73013 (HPPD native tolerance gene only); assay: Contribution of single HPPD tolerance genes, field rows sprayed at 4 leaf stage; type: in vivo, Oryza sativa; conditions: 0.5×-4× of 210 gmai/ha, 4 weeks after application
Description: (§1) During the breeding process to develop new lines (PL1214418M2-80048 and PL1214418M2-73009) with resistance/tolerance to HPPD and ACCase herbicides, two other lines were also investigated to determine the contribution of the HPPD tolerance mutation and the HPPD tolerance native gene. The line PL1214418M2-73001 carries ACCase tolerance and only the HPPD tolerance, whereas […] PL1214418M2-73013 carries ACCase tolerance and only the HPPD native tolerance gene. These selections allow the estimation of the tolerance effect of each of the two genes required for tolerance to HPPD herbicides. The tolerance effect of each gene was measured by growing the lines in single rows including the newly developed line PL1214418M2-73009 that carries both the HPPD tolerance from the mutation and the non-induced tolerance, the HPPD tolerant line ML0831266-0309, and the non-induced parent line P1003. The field plots were sprayed at the 4 leaf stage with the HPPD herbicide mesotrione at 0.5×, 1×, 2×, and 4× multiples of the labeled application rate of 210 gmai/ha.

[4] = test system: rice line PL1214418M2-73001 (HPPD mutation only); assay: as above; type: in vivo, Oryza sativa; conditions: 0.5×-4× of 210 gmai/ha, 4 weeks after application
Description: as §1

[5] = test system: rice line ML0831265-01493; assay: Mesotrione tolerance trials; type: in vivo, Oryza sativa
[6] = test system: rice line PL1214418M2-73009; assay: Trial of recovery of HPPD tolerance in the combined line; type: in vivo, Oryza sativa; conditions: 0.5×, 1×, 2×, 4× of 210 gmai/ha and sequential 1× and 2×
Method: Two trials were conducted to measure recovery of tolerance to both ACCase and HPPD herbicides in the new line PL1214418M2-73009. Recovery of tolerance in the line combining the two traits will illustrate that the traits are heritable and can be used to produce new varieties and hybrids carrying herbicide resistance. These trials are important as often times it is difficult to recover complex QTLs for quantitative traits or in some cases a traits response is dependent upon the genetic background. In the first trail the lines resistance to mesotrione (HPPD herbicide) was evaluated by planting line PL1214418M2-73009, the HPPD resistant line ML0831266-03093 and wild-type rice line P1003 and R0146 in plots (5 feet×10 feet). Mesotrione was applied at 0.5×, 1×, 2×, and 4× multiples of the labeled application rate (210 gmai/ha). Two additional treatments were included with a 1× and 2× rate followed by a second application 14 days afterward with the same rates.

[7] = test system: rice line ML0831266-03093 (HPPDi + HPPDni); assay: Mesotrione tolerance trials
Method: FIG. 4 is a graphical representation of results of a trait tolerance trial wherein mesotrione was applied at the indicated rates about 34 days after planting.
In particular, a rate response experiment was conducted in which two different rates of mesotrione were applied pre-emergence, plus an additional foliar application was also applied.
Further validation of the trait involved testing the mutant line ML0831266-03093 in the presence of common rice weeds.
The mutant line is planted in rows or alternatively whole plots are planted and rows of the unmutated line (P1003) and other types of rice or whole plots are planted. Mesotrione is applied pre-emergence or alternatively it is applied post-emergence at the three to four leaf stage of the rice plants. Various rates of mesotrione are applied pre-emergence, pre-emergence followed by post-emergent, or post-emergent with a single or sequential application. Post-emergent applications are applied at the 3-4 leaf stage of the rice.

[8] = test system: rice line R0146 (unmutated); assay: Mesotrione tolerance trials; type: in vivo, Oryza sativa; conditions: low rates (105 gm ai/ha)
[9] = test system: rice line P1003 (unmutated parent); assay: Mesotrione tolerance trials; type: in vivo, Oryza sativa
[10] = 105 gai/ha followed by second application of 630 gai/ha
[11] = single application at 105 gai/ha
[12] = single application at 420 gai/ha

CS(=O)(=O)c1ccc(C(=O)C2C(=O)CCCC2=O)c([N+](=O)[O-])c1 [mesotrione]
Observed number of Susceptible plants [1, 10]: 67 | Observed number of Tolerant plants [1, 10]: 28 | Observed number of Susceptible plants [1, 11]: 23 | Observed number of Tolerant plants [1, 11]: 64 | Observed number of Susceptible plants [1, 12]: 52 | Observed number of Tolerant plants [1, 12]: 26 | control of common weeds in rice ([2]; alone, especially pre-plant or at 2× the labeled rate of 210 gmai/ha): Control of common weeds in rice was also achieved | control of prevalent weed population ([2]; plots with line ML0831266-03093): well controlled | tolerance level [3]: tolerance levels similar to the parent line P1003 | tolerance level between P1003 and ML0831266-0309 [4]: intermediate tolerance | sensitivity ([5]; in vivo): highly sensitive | survival ([5]; low rates (105 gm ai/ha)): killed | response compared with original trait line ML0831266-03093 [6]: same response | rate over which even lines with genetic resistance may be injured ([7]; FIG. 4 trial, 4 weeks after application): over 420 gmai/ha | tolerance of the crop in the presence of common rice weeds ([7]; applied rates): completely tolerant | survival ([7]; higher rates): survives | survival ([7]; low rates (105 gm ai/ha)): survive | survival [8]: killed | survival ([9]; higher rates): killed or severally injured | survival ([9]; low rates (105 gm ai/ha)): survive
